In patent US6265445A, “Antiarrhythmic compounds” (priority 1997, dated 2001):
Counter-ions that a name gives are not always drawn. Like-named read-outs stand apart in the source and are kept apart here.

Tests used:
[1] = system: isolated right ventricular trabecule of dog heart; assay: Extracellular electrophysiological measurements: impulse conduction time and effective refractory period; design: species or system mongrel dogs; details: for activation at 2 µM / activation at 30 µM / activation at 10 µM: Canis lupus familiaris; for effect on effective refractory period (in words) / effect on impulse conduction (in words): concentrations of Table 1
Method: Right ventricular trabecules were prepared from the heart of mongrel dogs (weighing 5 to 10 kg each). The surviving heart pieces were placed into an organ bath (37° C.) containing modified Tyrode's nutrient medium and excited by point stimulation with a basal frequency of 1 Hz. Extracellular bipolar platinum electrodes were placed on the surface of the preparations, by means of which the propagation of the superficial potentials were registered; thus, the determination of the time of impulse conduction or the rate of impulse conduction, respectively, and the effective refractory period (ERP) became possible. During our experiments,the frequency of stimulation was temporarily varied from 0.5 Hz up to 3 Hz. The tested compounds were directly added to the organ bath after dilution of the stock solution according to the desired final concentration.

[2] = system: right ventricular papillary muscle of dogs; assay: Intracellular microelectrode technique: action potential parameters, ventricular papillary muscle; design: species or system mongrel dogs; details: for Trecovery (recovery time constant of Vmax): Gy: kinetics of rapid restoration; for effect on duration of the action potential (in words) / effect on Vmax (in words): concentrations of Table 2; for effect on Vmax (in words): rapid recovery kinetics
Method: The method used is essentially in agreement with the method of Papp et al. [J. Cardiovascular Pharmacol. Ther. 1, 287-296 (1996)].
Right ventricular papillary muscle and Purkinje's fibres were prepared from the hearts of mongrel dogs (weighing 5 to 10 kg each). The preparations were placed into an organ bath (37° C.) containing modified Tyrode's nutrient medium. The preparations were excited by a basal frequency of 1 Hz. During the experiments, the frequency of stimulation was varied under broad limits by a computer-guided stimulator. The intracellular action potentials were registered by using glass capillary microelectrodes filled with 3 N potassium chloride solution (standard intracellular microelectrode techniques). The resting potential (RP), the amplitude of the action potential (APA) as well as the duration of the action potential (APD) were measured by using an IBM 386 compatible computer by means of an own-developed software. The compounds under test were directly added into the organ bath after dilution of the stock solutions according to the final concentrations desired. The effects of the compounds were observed after an incubation time of 30 to 40 minutes.

[3] = treatment group; cited from earlier work
[4] = system: arrhythmias following coronary artery occlusion in conscious rats; assay: Occlusion arrhythmia following acute coronary artery ligation in conscious rats; type: in vivo, male rats; details: for Occurrence of arrhythmias: Brady / Occurrence of arrhythmias: Free (no arrhythmia was observed) / Occurrence of arrhythmias: Other / Occurrence of arrhythmias: VF / Occurrence of arrhythmias: VT: first 15 minutes; for Arrhythmia Score: score system from 0 to 6
Description: The method used is essentially in agreement with the method of Lepran et al. [J. Pharmacol. Methods 9, pp. 219-230 (1983)].
During a previous operation, male rats weighing 340 to 360 g each were fitted with a loose surgical thread loop around the left descending coronary vessel, at about 2 mm from its origin. The ends of the loop thread were led out from the chest under the skin, then the surgical wound was closed. After complete recovery from this previous operation (7 to 8 days) acute myocardial ischaemia was induced by contracting the loose ligation in the conscious, freely moving animals. ECG was continuously registered by using bipolar chest electrodes before the ligation of the coronary artery and during the first 15 minutes of ischaemia. The ratio of survivals was determined and the developed arrhythmias were evaluated according to the Lambeth Convention [Walker et al.: Cardiovasc. Res. 22, 447-455 (1988)]. For evaluation of the arrhythmic episodes a score system was also employed by considering the severity of episodes on the basis of a score system from 0 to 6. Both d-sotalol and the substance of Example 15, respectively, were suspended in 1% methylcellulose and administered orally through a gastric sound at 1 hour before the compression of the coronary vessel. The control animals received a treatment with the same volume, i.e. 5 ml/kg of vehicle.

[5] = system: occlusion and reperfusion arrhythmias in anaesthetized dogs; assay: Occlusion and reperfusion arrhythmias following acute coronary ligation in anaesthetized dogs; type: in vivo, mongrel dogs; details: 3 mg/kg i.v.
Method: The method used is essentially in agreement with the method of Vegh et al. [Basic Res. Cardiol. 82, 159-171 (1987)].
Mongrel dogs of both sexes weighing 10 to 20 kg each were anaesthetized by a mixture of chloralose (60 mg/kg) and urethane (200 mg/kg) and the animals were maintained on artificial respiration. After opening the chest, the ramus descendens anterior (LAD) branch of the left coronary artery of heart was prepared from the first main collateral branch and a loose loop from surgical thread was placed around it. During our experiments, the blood pressure of the animal was measured by using a cannule introduced to the left femoral artery and even the standard ECG parameters by using needle electrodes were continuously registered. The arrhythmias were induced by the occlusion for 25 minutes of a loop placed round the LAD. The survival after lethal arrhythmias and frequency of the arrhythmias were registered. The 28 dogs used in the experiments were divided into three groups. The compound of Example 15 was administered in a dose of 1 mg/kg to 8 animals; d-sotalol was given in a dose of 3 mg/kg to 10 animals by a single intravenous injection 10 minutes before compression of the coronary vessel. The control dogs (10 animals) received 5 ml of physiological saline solution in the same manner as the treated animals.
By using this method it can be stated whether the substance investigated would be effective for protection against arrhythmias following the ligation of the coronary artery.

[6] = 1 Hz, read-out: Prolongation (%) of ERP
[7] = 1 Hz, read-out: Prolongation (%) of impulse conduction time
[8] = 3 Hz, read-out: Prolongation (%) of ERP
[9] = 3 Hz, read-out: Prolongation (%) of impulse conduction time

`Cc1cccc(C)c1OCC(C)N(C)CCc1ccc(N)cc1` (stereo not shown) [Example 9, N-[2-(2,6-Dimethylphenoxy)-1-methylethyl]-N-methyl-2-(4-aminophenyl)ethylamine] showed an activation at 2 µM [1, 6] of 31.8%, an activation at 2 µM [1, 7] of 38% and an activation at 2 µM [1, 8] of 39.4%. The activation at 2 µM [1, 9] was 51.3%, the “effect on effective refractory period (in words)” value [1] was “simultaneous prolongation of the effective refractory period (ERP)” and the “effect on impulse conduction (in words)” value [1] was “significantly prolonged the time of impulse conduction in a frequency-dependent manner”. The “APA (amplitude of the action potential)” value ([2]; 1 μM) was 110 mV, the “APD50 (time of 50% repolarization)” value ([2]; 1 μM) was 285 ms and the “APD90 (time of 90% repolarization)” value ([2]; 1 μM) was 342 ms. The “RP (resting potential)” value ([2]; 1 μM) was -91 mV, the “Recovery Ampl” value ([2]; 1 μM) was 132.4 V/s and the “Recovery Ampl/Plateau” value ([2]; 1 μM) was 0.61. For the same molecule, the “Recovery Plateau” value ([2]; 1 μM) was 216.5 V/s, the “Vmax (maximum rate of depolarization)” value ([2]; 1 μM) was 200 V/s and the “Trecovery (recovery time constant of Vmax)” value ([2]; 1 μM) was 307.4 ms. For the same molecule, the “effect on duration of the action potential (in words)” value [2] was “simultaneous prolongation of duration of the action potential (APD)” and the “effect on Vmax (in words)” value [2] was “mexiletine-like inhibition of Vmax”.

For `CC(C)NCC(O)c1ccc(NS(C)(=O)=O)cc1` (single isomer, unassigned) [d-Sotalol, d-N-[4-[1-hydroxy-2-(1-methylethylamino)ethyl]phenyl]methanesulfonamide hydrochloride], the “mortality in clinical trials (in words)” value [3] is listed as “increase in mortality ascribable to the proarrhythmic effect”, the “antiarrhythmic effect (in words)” value ([4]; oral administration) is listed as “proved to be inactive” and the “Survival 15 minutes” value ([4]; p.o. 25 mg/kg) is listed as 2/29. For the same molecule, the “Survival 16 hours” value ([4]; p.o. 25 mg/kg) was 2/29, the “Occurrence of arrhythmias: Brady” value ([4]; p.o. 25 mg/kg) was 2/29 and the “Occurrence of arrhythmias: Free (no arrhythmia was observed)” value ([4]; p.o. 25 mg/kg) was 0/0. For the same molecule, the “Occurrence of arrhythmias: Other” value ([4]; p.o. 25 mg/kg) was 3/43, the “Occurrence of arrhythmias: VF” value ([4]; p.o. 25 mg/kg) was 7/100 and the “Occurrence of arrhythmias: VT” value ([4]; p.o. 25 mg/kg) was 7/100. The “Arrhythmia Score” value ([4]; p.o. 25 mg/kg) was 5.71 ± 0.18, the “Survival 15 minutes” value ([4]; p.o. 50 mg/kg) was 1/10 and the “Survival 16 hours” value ([4]; p.o. 50 mg/kg) was 0/0. The “Occurrence of arrhythmias: Brady” value ([4]; p.o. 50 mg/kg) was 1/10, the “Occurrence of arrhythmias: Free (no arrhythmia was observed)” value ([4]; p.o. 50 mg/kg) was 0/0 and the “Occurrence of arrhythmias: Other” value ([4]; p.o. 50 mg/kg) was 4/40. The “Occurrence of arrhythmias: VF” value ([4]; p.o. 50 mg/kg) was 1/100, the “Occurrence of arrhythmias: VT” value ([4]; p.o. 50 mg/kg) was 10/100 and the “Arrhythmia Score” value ([4]; p.o. 50 mg/kg) was 5.90 ± 0.10. For the same molecule, the activation at 30 µM [1, 6] was 12.4%, the activation at 30 µM [1, 7] was -4.5 ± 5.1% and the activation at 30 µM [1, 8] was 7.1%. For the same molecule, the activation at 30 µM [1, 9] was -3.7 ± 4.7%, the “effect on effective refractory period (in words)” value [1] was “showed a considerable effect only on the ERP” and the “Complete survival, animals” value [5] was 5/10. For the same molecule, the “Complete survival, percent” value [5] was 50%, the “ES (extrasystole)” value ([5]; occlusion) was 128 ± 14 and the “VF (ventricular fibrillation), animals” value ([5]; occlusion) was 3/10. For the same molecule, the “VF (ventricular fibrillation), percent” value ([5]; occlusion) was 30%, the “VT (ventricular tachycardia), animals” value ([5]; occlusion) was 5/10 and the “VT (ventricular tachycardia), percent” value ([5]; occlusion) was 50%. For the same molecule, the “VF (ventricular fibrillation), animals” value ([5]; reperfusion) was 2/7 and the “VF (ventricular fibrillation), percent” value ([5]; reperfusion) was 29%.

For `Cc1cccc(C)c1OC[C@H](C)N(C)CCc1ccc(NS(C)(=O)=O)cc1` [Example 16, (S)-N-[4-[2-[N-Methyl-N-[2-(2,6-dimethylphenoxy)-1-methylethyl]amino]ethyl]pbenyl]methanesulfonamide hydrochloride], the activation at 10 µM [1, 6] was 10.7%, the activation at 10 µM [1, 7] was 26.9% and the activation at 10 µM [1, 8] was 14.3%. For the same molecule, the activation at 10 µM [1, 9] was 39.7%, the “effect on effective refractory period (in words)” value [1] was “simultaneous prolongation of the effective refractory period (ERP)” and the “effect on impulse conduction (in words)” value [1] was “significantly prolonged the time of impulse conduction in a frequency-dependent manner”. For the same molecule, the “APA (amplitude of the action potential)” value ([2]; 5 μM) was 105 mV, the “APD50 (time of 50% repolarization)” value ([2]; 5 μM) was 195 ms and the “APD90 (time of 90% repolarization)” value ([2]; 5 μM) was 244 ms. The “RP (resting potential)” value ([2]; 5 μM) was -86 mV, the “Recovery Ampl” value ([2]; 5 μM) was 75.8 V/s and the “Recovery Ampl/Plateau” value ([2]; 5 μM) was 0.39. The “Recovery Plateau” value ([2]; 5 μM) was 196.4 V/s, the “Vmax (maximum rate of depolarization)” value ([2]; 5 μM) was 199 V/s and the “difference between the effects of Example 15 and its enantiomers (in words)” value ([2]; 5 μM) was “No essential difference could be observed”. For the same molecule, the “Trecovery (recovery time constant of Vmax)” value ([2]; 5 μM) was 249.5 ms, the “effect on duration of the action potential (in words)” value [2] was “simultaneous prolongation of duration of the action potential (APD)” and the “effect on Vmax (in words)” value [2] was “mexiletine-like inhibition of Vmax”.
